{"source": "patent US20170306409A1", "about": "“CANCER PATIENT SELECTION FOR ADMINISTRATION OF WNT SIGNALING INHIBITORS USING RNF43 MUTATION STATUS” (NOVARTIS AG, priority 2012, published 2017)", "assay_type_in_all_cases": "cell-based, human", "key": {"[1]": {"test_system": "STF Wnt reporter, YAPC-STF cells", "experiment": "SuperTOPFlash (STF) luciferase reporter assay", "conditions": "absence of exogenous Wnt3a, LGK974 or IWP-2", "experimental": "For the luciferase reporter assay, YAPC-STF reporter cells were transfected with siRNA and treated with Wnt3a conditioned medium or compound where applicable. STF luciferase assays were performed using BrightGlo Luciferase Assay kits (Promega) according to the manufacturer's instructions.\nTo construct pancreatic cell lines expressing STF reporter, HEK293 cells were grown in medium recommended by ATCC supplemented with 10% FBS. Retrovirus or lentivirus was produced from HEK293 cells by standard virus packaging procedure using FuGENE 6 (Roche) transfection reagent. Pancreatic cell lines expressing STF reporter, RNF43 constructs, or DOX-inducible β-catenin shRNA were generated by viral infection and drug selection.\nDepletion of RNF43 induces Dvl phosphorylation and β-catenin stabilization. […] RNF43 siRNA-induced STF activity in the absence of exogenous Wnt3a is inhibited by LGK974 and a previously known Porcupine inhibitor IWP-2. Chen B et al. (2009) Nat. Chem. Biol. 5(2):100-7. See, FIG. 3(b), showing that this activity is dependent on the expression of endogenous Wnt proteins."}, "RNF43 mRNA, YAPC cells": {"test_system": "RNF43 mRNA, YAPC cells", "experiment": "quantitative RT-PCR gene expression analysis", "conditions": "3 μM of IWP2", "experimental": "FIG. 4(a) is a bar graph showing that the depletion of β-catenin decreases mRNA level of AXIN2 and RNF43. Cells were treated with siRNA, and relative mRNA levels of indicated genes were analyzed by quantitative RT-PCR. […] YAPC cells were treated with 3 μM of IWP2 or 1 μM of LGK974, and subjected to gene expression analysis by quantitative RT-PCR.\n(§1) For reverse transcription and quantitative PCR (qPCR), total RNA was extracted from cells or tumors using the RNeasy Plus Mini Kit (Qiagen). 1 μg of RNA were reverse transcribed with Taqman Reverse Transcription Reagents (Applied Biosystems) according to the manufacturer's instruction. Quantitative PCR was performed in 12 μl reactions consisting of 0.6 μl of 20× Taqman probe and PCR primer mix, 6 μl 2× Taqman FAST Advanced Master Mix (Applied Biosystems), and 5.4 μl diluted cDNA template. The thermocycling conditions utilized were 20 seconds at 95° C., followed by 40 cycles of 1 second at 95° C. and 20 seconds at 60° C. All experiments were performed in quadruplicates. Gene expression analysis was performed using the comparative ΔΔCT method and normalized with the housekeeping gene GUSB or 18S. The Taqman probes were purchased from Applied Biosystems.\nConsistent with this observation, treatment of Porcupine inhibitor IWP2 or LGK974 increased the cell surface level of Frizzled and decreased the mRNA levels of AXIN2 and RNF43. See, FIG. 4(b). […]"}, "[2]": {"test_system": "cell surface Frizzled (FZD), YAPC cells", "experiment": "flow cytometry of membrane Frizzled (pan-Frizzled antibody 18R5)", "experimental": "YAPC cells were transfected with indicated siRNA, and membrane levels of Frizzled were analyzed by flowcytometry using pan-Frizzled antibody 18R5.\nFor flow cytometric analysis, cells were harvested using trypsin-free cell dissociation buffer (Invitrogen) and resuspended in FACS buffer (PBS with 1% BSA and 0.02% sodium azide). After blocking, cells were incubated with anti-pan-Frizzled (18R5) antibody for 1 hour at 4° C., followed by incubation with Allophycocyanin (APC)-conjugated goat anti-human IgG secondary antibody. After extensive washes using FACS buffer, cells were stained with propidium iodide (PI) and subjected to multi-channel analysis using BD LSR II flow cytometer.\n(§2) Consistent with this observation, treatment of Porcupine inhibitor IWP2 or LGK974 increased the cell surface level of Frizzled and decreased the mRNA levels of AXIN2 and RNF43. See, FIG. 4(b). […] YAPC cells were treated with 3 μM of IWP-2 or 1 μM of LGK974, and subjected to flowcytometry analysis for membrane Frizzled expression."}, "Axin2, YAPC": {"test_system": "Axin2, YAPC", "experiment": "Axin2 qPCR assay (pathway inhibition)", "conditions": "YAPC cells; 3 μM of IWP2", "experimental": "as §1, §2"}}, "data": [{"smiles": "Cc1ccc2nc(NC(=O)CSc3nc4c(c(=O)n3-c3ccccc3)SCC4)sc2c1", "note": "[IWP-2, reference compound]", "values": [{"measurement": "RNF43 siRNA-induced STF activity", "setting": "[1]", "result": "inhibited"}, {"measurement": "mRNA level of RNF43", "setting": "RNF43 mRNA, YAPC cells", "result": "decreased"}, {"measurement": "Median FZD intensity in FACS", "setting": "[2]; 3 μM of IWP-2, DMSO 721", "result": 1754}, {"measurement": "Median FZD intensity in FACS", "setting": "[2]; 3 μM of IWP-2, DMSO 721, listed as IWP2", "result": "increased"}, {"measurement": "mRNA level of AXIN2", "setting": "Axin2, YAPC", "result": "decreased"}]}]}
